The results in this text go back to patent publication US12643867B2, “Compositions and uses thereof” (University of Virginia Patent Foundation, priority 2017, dated 2026).

In series [1] the test system is Bone Marrow Derived Macrophages (BMDMs), noncancerous primary cells. The series can be described thus: WST-1 Cell Proliferation Assay. The note with it: ritanserin highest concentration tested 50 μM; staurosporine 1 μM. In kind it is cell-based. (Tetrazolium assays rely on reduction of a dye to a coloured formazan, in cell work by metabolically active cells.)
The target of series [2] is T1, ARAF (Homo sapiens, UniProt P10398).
T1 construct: measure selectivity of compounds against native kinases detected in lung cancer proteomes; endogenous in cells; host or cells: H82 (and A549) cell proteomes
T1 sequence (P10398 whole entry): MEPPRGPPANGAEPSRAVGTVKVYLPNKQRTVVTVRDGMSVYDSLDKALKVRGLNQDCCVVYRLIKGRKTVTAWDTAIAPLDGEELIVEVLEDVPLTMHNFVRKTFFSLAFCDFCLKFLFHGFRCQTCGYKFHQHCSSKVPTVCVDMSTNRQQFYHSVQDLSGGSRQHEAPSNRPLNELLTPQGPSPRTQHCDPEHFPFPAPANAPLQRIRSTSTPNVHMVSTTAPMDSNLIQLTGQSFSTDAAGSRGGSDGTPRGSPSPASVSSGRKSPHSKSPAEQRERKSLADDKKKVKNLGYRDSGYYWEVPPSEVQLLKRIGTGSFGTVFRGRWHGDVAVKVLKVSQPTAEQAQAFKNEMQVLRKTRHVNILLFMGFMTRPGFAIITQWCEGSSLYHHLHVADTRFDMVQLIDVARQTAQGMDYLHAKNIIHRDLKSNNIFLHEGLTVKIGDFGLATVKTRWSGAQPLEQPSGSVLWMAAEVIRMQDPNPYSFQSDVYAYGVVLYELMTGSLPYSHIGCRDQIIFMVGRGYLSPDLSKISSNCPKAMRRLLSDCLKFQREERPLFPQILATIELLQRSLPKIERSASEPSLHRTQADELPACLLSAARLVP
Description: ATP acyl phosphate chemical proteomics in lung cancer cell proteomes (targeted PRM). Format: binding. To be noted: H82 proteomes. As for the experimental part: LC-MS analysis of SILAC samples using ATP acyl phosphates. Quantitative chemoproteomics was performed as previously described (Franks et al., 2017; McCloud et al., 2018).
To further confirm that ritanserin is a CRAF inhibitor, a targeted parallel reaction monitoring method (PRM) was developed to evaluate compound activity against CRAF and other members of the RAF family (ARAF and BRAF). Targeted PRM was needed because of the low abundance of CRAF compared with ARAF and BRAF). […] Ritanserin activity was also measured against RAF kinases in A549 proteomes using the targeted LC-MS method. […] The data further support previous findings that this RAF member is enriched in SCLC cells (REF).

Turning to `Cc1nc2sccn2c(=O)c1CCN1CCC(=C(c2ccc(F)cc2)c2ccc(F)cc2)CC1` [Ritanserin], the “cell killing of noncancerous primary cells (WST-1), words” value in series [1] is reported as “negligible cell killing”. The “activity by targeted PRM” value in series [2] is reported as “negligible activity”.
